Test results published in PubChem BioAssay (NCI).
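Values below derive from 48-hour exposures of cells grown in 96-well plates, with endpoints linearly interpolated between the two concentrations bracketing the appropriate inhibition level. GI50 marks 50% less growth. The concentration for full growth arrest is given as TGI.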

Tests used:
Assay in all cases: NCI anticancer screen, dose series, 48 h
[1] = tested on: SF-539 CNS
[2] = tested on: HT29 colon
[3] = tested on: NCI-H460 lung
[4] = tested on: 786-0 renal
[5] = tested on: NCI/ADR-RES ovarian
[6] = tested on: NCI-H522 lung
[7] = tested on: SK-OV-3 ovarian
[8] = tested on: NCI-H23 lung
[9] = tested on: SF-268 CNS
[10] = tested on: CAKI-1 renal
[11] = tested on: SN12C renal
[12] = tested on: MCF7 breast
[13] = tested on: K-562 leukemia
[14] = tested on: SW-620 colon
[15] = tested on: MDA-MB-435
[16] = tested on: RXF 393 renal
[17] = tested on: TK-10 renal
[18] = tested on: SR leukemia
[19] = tested on: HS 578T breast
[20] = tested on: COLO 205 colon
[21] = tested on: HCT-15 colon
[22] = tested on: IGROV1 ovarian
[23] = tested on: M14 melanoma
[24] = tested on: A498 renal
[25] = tested on: EKVX NSCLC
[26] = tested on: RPMI-8226 leukemia
[27] = tested on: NCI-H226 lung
[28] = tested on: HOP-92 NSCLC
[29] = tested on: SNB-19 CNS
[30] = tested on: HCT-116 colon
[31] = tested on: LOX IMVI melanoma
[32] = tested on: SK-MEL-28 melanoma
[33] = tested on: HCC-2998 colon
[34] = tested on: UO-31 renal
[35] = tested on: MDA-MB-231 breast
[36] = tested on: KM12 colon
[37] = tested on: OVCAR-8 ovarian
[38] = tested on: U251 CNS
[39] = tested on: T-47D breast
[40] = tested on: SNB-75 CNS
[41] = tested on: SK-MEL-5 melanoma
[42] = tested on: MALME-3M melanoma
[43] = tested on: UACC-257 melanoma
[44] = tested on: HL-60(TB) leukemia
[45] = tested on: HOP-62 NSCLC
[46] = tested on: PC-3 prostate
[47] = tested on: OVCAR-5 ovarian
[48] = tested on: SK-MEL-2 melanoma
[49] = tested on: ACHN renal
[50] = tested on: BT-549 breast
[51] = tested on: DU-145 prostate
[52] = tested on: UACC-62 melanoma
[53] = tested on: SF-295 CNS
[54] = tested on: MOLT-4 leukemia
[55] = tested on: A549 NSCLC
[56] = tested on: OVCAR-3 ovarian
[57] = tested on: OVCAR-4 ovarian
[58] = tested on: CCRF-CEM leukemia

## Cc1ncc(-c2ccnc(Nc3ccc(S(C)(=O)=O)cc3)n2)n1C(C)C
[1]
  GI50: 0.56 µM
  TGI: 2.71 µM
[2]
  GI50: 1.29 µM
  TGI: > 10 µM
[3]
  GI50: 0.931 µM
  TGI: > 5.33 µM
[4]
  GI50: 0.922 µM
  TGI: > 10 µM
[5]
  GI50: 2.46 µM
  TGI: > 10 µM
[6]
  GI50: 1.52 µM
  TGI: 5.29 µM
[7]
  GI50: 4.16 µM
  TGI: > 10 µM
[8]
  GI50: 1.79 µM
  TGI: 7.17 µM
[9]
  GI50: 1.67 µM
  TGI: 6.62 µM
[10]
  GI50: 0.805 µM
  TGI: > 10 µM
[11]
  GI50: 1.34 µM
  TGI: 9.84 µM
[12]
  GI50: 0.523 µM
  TGI: > 10 µM
[13]
  GI50: 1.59 µM
  TGI: > 10 µM
[14]
  GI50: 1.02 µM
  TGI: > 10 µM
[15]
  GI50: 1.41 µM
  TGI: > 5.6 µM
[16]
  GI50: 0.211 µM
  TGI: 0.678 µM
[17]
  GI50: 1.37 µM
  TGI: > 10 µM
[18]
  GI50: 0.222 µM
  TGI: 2.94 µM
[19]
  GI50: 0.977 µM
  TGI: 5.33 µM
[20]
  GI50: 0.532 µM
  TGI: 2.37 µM
[21]
  GI50: 1.41 µM
  TGI: > 8.6 µM
[22]
  GI50: 0.758 µM
  TGI: > 7.91 µM
[23]
  GI50: 1.6 µM
  TGI: 5.04 µM
[24]
  GI50: 0.647 µM
  TGI: 2.55 µM
[25]
  GI50: 1.56 µM
  TGI: 5.54 µM
[26]
  GI50: 1.57 µM
  TGI: 6.18 µM
[27]
  GI50: 0.902 µM
  TGI: > 8.47 µM
[28]
  GI50: 0.926 µM
  TGI: 6.16 µM
[29]
  GI50: 2.23 µM
  TGI: > 10 µM
[30]
  GI50: 0.275 µM
  TGI: > 10 µM
[31]
  GI50: 0.537 µM
  TGI: 9.94 µM
[32]
  GI50: 1.28 µM
  TGI: > 5.69 µM
[33]
  GI50: 1.35 µM
  TGI: 5.59 µM
[34]
  GI50: 1 µM
  TGI: > 10 µM
[35]
  GI50: 1.88 µM
  TGI: > 9.48 µM
[36]
  GI50: 0.527 µM
  TGI: 2.33 µM
[37]
  GI50: 1.33 µM
  TGI: > 10 µM
[38]
  GI50: 1.11 µM
  TGI: > 10 µM
[39]
  GI50: 1.38 µM
  TGI: > 8.75 µM
[40]
  GI50: 0.377 µM
  TGI: 2.58 µM
[41]
  GI50: 0.811 µM
  TGI: 3.29 µM
[42]
  GI50: 2.56 µM
  TGI: 6.04 µM
[43]
  GI50: 1.94 µM
  TGI: 5.62 µM
[44]
  GI50: 1.06 µM
  TGI: 4.64 µM
[45]
  GI50: 1.36 µM
  TGI: > 10 µM
[46]
  GI50: 1.3 µM
  TGI: 7.2 µM
[47]
  GI50: 1.09 µM
  TGI: > 8.88 µM
[48]
  GI50: 1.38 µM
  TGI: 3.17 µM
[49]
  GI50: 0.603 µM
  TGI: > 9.54 µM
[50]
  GI50: 0.925 µM
  TGI: 7.22 µM
[51]
  GI50: 1.32 µM
  TGI: > 10 µM
[52]
  GI50: 1.45 µM
  TGI: 3.64 µM
[53]
  GI50: 1.67 µM
  TGI: 6.75 µM
[54]
  GI50: 1.03 µM
  TGI: 4.99 µM
[55]
  GI50: 1.34 µM
  TGI: > 10 µM
[56]
  GI50: 0.853 µM
  TGI: > 8.42 µM
[57]
  GI50: 1.87 µM
  TGI: > 8.73 µM
[58]
  GI50: 0.987 µM
  TGI: > 7.12 µM

## CN1CCN(c2ccc(C(=O)Nc3cccc(C#Cc4cccc5[nH]nc(N)c45)c3)cc2C(F)(F)F)CC1
[1]
  GI50: 0.544 µM
  TGI: 1.16 µM
[2]
  GI50: 0.715 µM
  TGI: 1.81 µM
[3]
  GI50: 0.701 µM
  TGI: 1.5 µM
[4]
  GI50: 2.05 µM
  TGI: 5.04 µM
[5]
  GI50: 0.99 µM
  TGI: 2.82 µM
[6]
  GI50: 0.566 µM
  TGI: 1.3 µM
[7]
  GI50: 1.62 µM
  TGI: 5.34 µM
[8]
  GI50: 1.79 µM
  TGI: 6.12 µM
[9]
  GI50: 1.21 µM
  TGI: 4.85 µM
[10]
  GI50: 0.668 µM
  TGI: 1.51 µM
[11]
  GI50: 1.2 µM
  TGI: 4.54 µM
[12]
  GI50: 0.582 µM
  TGI: 1.14 µM
[13]
  GI50: 0.0235 µM
  TGI: 0.717 µM
[14]
  GI50: 0.608 µM
  TGI: 1.26 µM
[15]
  GI50: 0.61 µM
  TGI: 1.19 µM
[16]
  GI50: 0.799 µM
  TGI: 2.31 µM
[17]
  GI50: 1.1 µM
  TGI: 3.24 µM
[18]
  GI50: 1.06 µM
  TGI: 5.34 µM
[19]
  GI50: 0.847 µM
  TGI: 3.4 µM
[20]
  GI50: 0.581 µM
  TGI: 1.2 µM
[21]
  GI50: 0.644 µM
  TGI: 1.27 µM
[22]
  GI50: 0.716 µM
  TGI: 1.92 µM
[23]
  GI50: 0.636 µM
  TGI: 1.34 µM
[24]
  GI50: 2.22 µM
  TGI: 6.76 µM
[25]
  GI50: 1.6 µM
  TGI: 5.63 µM
[26]
  GI50: 1.45 µM
  TGI: 4.06 µM
[27]
  GI50: 2.12 µM
  TGI: 6.94 µM
[28]
  GI50: 1.02 µM
  TGI: 4.07 µM
[29]
  GI50: 1.68 µM
  TGI: 4.92 µM
[30]
  GI50: 0.525 µM
  TGI: 1.04 µM
[31]
  GI50: 0.59 µM
  TGI: 1.08 µM
[32]
  GI50: 0.631 µM
  TGI: 1.25 µM
[33]
  GI50: 0.658 µM
  TGI: 1.31 µM
[34]
  GI50: 0.713 µM
  TGI: 1.8 µM
[35]
  GI50: 0.568 µM
  TGI: 1.35 µM
[36]
  GI50: 0.808 µM
  TGI: 1.95 µM
[37]
  GI50: 1.09 µM
  TGI: 4.77 µM
[38]
  GI50: 0.707 µM
  TGI: 1.95 µM
[39]
  GI50: 1.24 µM
  TGI: 5.55 µM
[40]
  GI50: 0.624 µM
  TGI: 1.62 µM
[41]
  GI50: 2.16 µM
  TGI: 6.34 µM
[42]
  GI50: 0.651 µM
  TGI: 1.62 µM
[43]
  GI50: 1.93 µM
  TGI: 4.53 µM
[44]
  GI50: 0.866 µM
  TGI: 3.08 µM
[45]
  GI50: 0.792 µM
  TGI: 2.19 µM
[46]
  GI50: 0.953 µM
  TGI: 7.92 µM
[47]
  GI50: 0.959 µM
  TGI: 3.27 µM
[48]
  GI50: 1.7 µM
  TGI: 5.49 µM
[49]
  GI50: 0.801 µM
  TGI: 2.4 µM
[50]
  GI50: 3.36 µM
  TGI: 7.68 µM
[51]
  GI50: 1.08 µM
  TGI: 3.2 µM
[52]
  GI50: 0.665 µM
  TGI: 1.62 µM
[53]
  GI50: 0.654 µM
  TGI: 1.39 µM
[54]
  GI50: 0.645 µM
  TGI: 1.57 µM
[55]
  GI50: 0.767 µM
  TGI: 2.02 µM
[56]
  GI50: 1.38 µM
  TGI: 4.73 µM
[57]
  GI50: 0.962 µM
  TGI: 4.51 µM
[58]
  GI50: 1.16 µM
  TGI: 4.6 µM
